System: UCD patients
Experiment: Example 3: TEAEs, serious and non-serious adverse events
Format: in vivo
Description: Sixteen newborn infants aged 0 to 27 days, and 10 infants and toddlers aged 28 days to 23 months received RAVICTI Oral Liquid administered just prior to breastfeeding or intake of formula or food. The recommended dosing regimen was 3-6 times per day depending on feeding schedule.
Number of Subjects with Treatment-Emergent Adverse Events (TEAEs), Serious TEAEs, Deaths, and Discontinuations Due to TEAEs
An adverse event (AE) is any untoward medical occurrence, whether or not the event is considered related to the study drug. A serious AE is any AE that: results in death; is life threatening; requires hospitalization or prolongation of existing hospitalization; results in disability/incapacity; is a congenital anomaly/birth defect; is an important medical event. TEAEs are defined as AEs with an onset date on or after the first dose of study medication until study discontinuation. The Investigator assessed the causal relationship of each TEAE to the study drug as not related, possibly related, or probably related. From the first dose of study treatment through 30 days after the final dose (mean [SD] duration of treatment was 9.13 [6.838] months).

[1] = Non-serious adverse events, Age 0 to <2 Months

O=C(CCCc1ccccc1)OCC(COC(=O)CCCc1ccccc1)OC(=O)CCCc1ccccc1 [RAVICTI, benzenebutanoic acid, 1′,1″-(1,2,3-propanetriyl) ester]
6: Dermatitis diaper, Occurrences (all) [1] | Diarrhoea, Occurrences (all) [1] | Gastrooesophageal reflux disease, Occurrences (all) [1]
4: Dehydration, Occurrences (all) [1]
0/1: Serious AE Atelectasis: Occurrences causally related to treatment/all (Age 0 to <2 Months) | Serious AE Bacteraemia: Occurrences causally related to treatment/all (Age 0 to <2 Months) | Serious AE Cellulitis: Occurrences causally related to treatment/all (Age 0 to <2 Months) | Serious AE Croup infectious: Occurrences causally related to treatment/all (Age 0 to <2 Months) | Serious AE Dehydration: Occurrences causally related to treatment/all (Age 0 to <2 Months) | Serious AE Device related infection: Occurrences causally related to treatment/all (Age 0 to <2 Months) | Serious AE Feeding Disorder: Occurrences causally related to treatment/all (Age 0 to <2 Months) | Serious AE Lethargy: Occurrences causally related to treatment/all (Age 0 to <2 Months) | Serious AE Medical device site infection: Occurrences causally related to treatment/all (Age 0 to <2 Months) | Serious AE Meningitis bacterial: Occurrences causally related to treatment/all (Age 0 to <2 Months) | Serious AE Neutropenia: Occurrences causally related to treatment/all (Age 0 to <2 Months) | Serious AE Respiratory syncytial virus infection: Occurrences causally related to treatment/all (Age 0 to <2 Months) | Serious AE Tracheitis: Occurrences causally related to treatment/all (Age 0 to <2 Months) | Serious AE Upper respiratory tract infection: Occurrences causally related to treatment/all (Age 0 to <2 Months) | Serious AE Urinary tract infection: Occurrences causally related to treatment/all (Age 0 to <2 Months) | Serious AE Viral infection: Occurrences causally related to treatment/all (Age 0 to <2 Months) | Serious AE Ammonia Increased: Occurrences causally related to treatment/all (Age 2 Months to <2 Years) | Serious AE Asthma: Occurrences causally related to treatment/all (Age 2 Months to <2 Years) | Serious AE Croup infectious: Occurrences causally related to treatment/all (Age 2 Months to <2 Years) | Serious AE Gastroenteritis: Occurrences causally related to treatment/all (Age 2 Months to <2 Years) | Serious AE Influenza: Occurrences causally related to treatment/all (Age 2 Months to <2 Years) | Serious AE Peritonitis: Deaths causally related to treatment/all (Age 2 Months to <2 Years) | Serious AE Peritonitis: Occurrences causally related to treatment/all (Age 2 Months to <2 Years) | Serious AE Pneumatosis intestinalis: Deaths causally related to treatment/all (Age 2 Months to <2 Years) | Serious AE Pneumatosis intestinalis: Occurrences causally related to treatment/all (Age 2 Months to <2 Years) | Serious AE Pyrexia: Occurrences causally related to treatment/all (Age 2 Months to <2 Years) | Serious AE Status asthmaticus: Occurrences causally related to treatment/all (Age 2 Months to <2 Years) | Serious AE Urinary tract infection: Occurrences causally related to treatment/all (Age 2 Months to <2 Years) | Serious AE Viral upper respiratory tract infection: Occurrences causally related to treatment/all (Age 2 Months to <2 Years)
0/2: Serious AE Vomiting: Occurrences causally related to treatment/all (Age 0 to <2 Months) | Serious AE Apnoeic Attack: Occurrences causally related to treatment/all (Age 2 Months to <2 Years) | Serious AE Cyanosis: Occurrences causally related to treatment/all (Age 2 Months to <2 Years) | Serious AE Viral infection: Occurrences causally related to treatment/all (Age 2 Months to <2 Years)
0/7: Serious AE Hyperammonaemia: Occurrences causally related to treatment/all (Age 0 to <2 Months) | Serious AE Hyperammonaemia: Occurrences causally related to treatment/all (Age 2 Months to <2 Years)
0: Number of Deaths (All Causes) (Age 0 to <2 Months) | Apnoea, Occurrences (all) [1] | Conjunctivitis, Occurrences (all) [1] | Dacryostenosis congenital, Occurrences (all) [1] | Ear and labyrinth disorders (Excessive cerumen production), Occurrences (all) [1] | Gross motor delay, Occurrences (all) [1] | Immune System Disorders (Seasonal allergy), Occurrences (all) [1]
1: Number of Deaths (All Causes) (Age 2 Months to <2 Years) | Agitation, Occurrences (all) [1] | Alanine aminotransferase increased, Occurrences (all) [1] | Amino acid level decreased, Occurrences (all) [1] | Ammonia increased, Occurrences (all) [1] | Anion gap increased, Occurrences (all) [1] | Arthropod bite, Occurrences (all) [1] | Aspartate aminotransferase increased, Occurrences (all) [1] | Blood bicarbonate decreased, Occurrences (all) [1] | Blood urea decreased, Occurrences (all) [1] | Body height below normal, Occurrences (all) [1] | Cardiac disorders (Tachycardia), Occurrences (all) [1] | Catheter site rash, Occurrences (all) [1] | Device occlusion, Occurrences (all) [1] | Drug withdrawal syndrome, Occurrences (all) [1] | Dysphagia, Occurrences (all) [1] | Eye discharge, Occurrences (all) [1] | Feeding disorder of infancy or early childhood, Occurrences (all) [1] | Gamma-glutamyltransferase increased, Occurrences (all) [1] | Gastroenteritis, Occurrences (all) [1] | Gastrointestinal viral infection, Occurrences (all) [1] | Hepatobiliary disorders (Hepatic calcification), Occurrences (all) [1] | Hypophagia, Occurrences (all) [1]
0/0: Serious AE Ammonia Increased: Deaths causally related to treatment/all (Age 0 to <2 Months) | Serious AE Ammonia Increased: Occurrences causally related to treatment/all (Age 0 to <2 Months) | Serious AE Apnoeic Attack: Deaths causally related to treatment/all (Age 0 to <2 Months) | Serious AE Apnoeic Attack: Occurrences causally related to treatment/all (Age 0 to <2 Months) | Serious AE Asthma: Deaths causally related to treatment/all (Age 0 to <2 Months) | Serious AE Asthma: Occurrences causally related to treatment/all (Age 0 to <2 Months) | Serious AE Atelectasis: Deaths causally related to treatment/all (Age 0 to <2 Months) | Serious AE Bacteraemia: Deaths causally related to treatment/all (Age 0 to <2 Months) | Serious AE Cellulitis: Deaths causally related to treatment/all (Age 0 to <2 Months) | Serious AE Croup infectious: Deaths causally related to treatment/all (Age 0 to <2 Months) | Serious AE Cyanosis: Deaths causally related to treatment/all (Age 0 to <2 Months) | Serious AE Cyanosis: Occurrences causally related to treatment/all (Age 0 to <2 Months) | Serious AE Dehydration: Deaths causally related to treatment/all (Age 0 to <2 Months) | Serious AE Device related infection: Deaths causally related to treatment/all (Age 0 to <2 Months) | Serious AE Feeding Disorder: Deaths causally related to treatment/all (Age 0 to <2 Months) | Serious AE Gastroenteritis: Deaths causally related to treatment/all (Age 0 to <2 Months) | Serious AE Gastroenteritis: Occurrences causally related to treatment/all (Age 0 to <2 Months) | Serious AE Hyperammonaemia: Deaths causally related to treatment/all (Age 0 to <2 Months) | Serious AE Influenza: Deaths causally related to treatment/all (Age 0 to <2 Months) | Serious AE Influenza: Occurrences causally related to treatment/all (Age 0 to <2 Months) | Serious AE Lethargy: Deaths causally related to treatment/all (Age 0 to <2 Months) | Serious AE Medical device site infection: Deaths causally related to treatment/all (Age 0 to <2 Months) | Serious AE Meningitis bacterial: Deaths causally related to treatment/all (Age 0 to <2 Months) | Serious AE Neutropenia: Deaths causally related to treatment/all (Age 0 to <2 Months) | Serious AE Peritonitis: Deaths causally related to treatment/all (Age 0 to <2 Months) | Serious AE Peritonitis: Occurrences causally related to treatment/all (Age 0 to <2 Months) | Serious AE Pneumatosis intestinalis: Deaths causally related to treatment/all (Age 0 to <2 Months) | Serious AE Pneumatosis intestinalis: Occurrences causally related to treatment/all (Age 0 to <2 Months) | Serious AE Pyrexia: Deaths causally related to treatment/all (Age 0 to <2 Months) | Serious AE Pyrexia: Occurrences causally related to treatment/all (Age 0 to <2 Months) | Serious AE Respiratory syncytial virus infection: Deaths causally related to treatment/all (Age 0 to <2 Months) | Serious AE Rhinovirus infection: Deaths causally related to treatment/all (Age 0 to <2 Months) | Serious AE Rhinovirus infection: Occurrences causally related to treatment/all (Age 0 to <2 Months) | Serious AE Status asthmaticus: Deaths causally related to treatment/all (Age 0 to <2 Months) | Serious AE Status asthmaticus: Occurrences causally related to treatment/all (Age 0 to <2 Months) | Serious AE Tracheitis: Deaths causally related to treatment/all (Age 0 to <2 Months) | Serious AE Upper respiratory tract infection: Deaths causally related to treatment/all (Age 0 to <2 Months) | Serious AE Urinary tract infection: Deaths causally related to treatment/all (Age 0 to <2 Months) | Serious AE Viral infection: Deaths causally related to treatment/all (Age 0 to <2 Months) | Serious AE Viral upper respiratory tract infection: Deaths causally related to treatment/all (Age 0 to <2 Months) | Serious AE Viral upper respiratory tract infection: Occurrences causally related to treatment/all (Age 0 to <2 Months) | Serious AE Vomiting: Deaths causally related to treatment/all (Age 0 to <2 Months) | Serious AE Ammonia Increased: Deaths causally related to treatment/all (Age 2 Months to <2 Years) | Serious AE Apnoeic Attack: Deaths causally related to treatment/all (Age 2 Months to <2 Years) | Serious AE Asthma: Deaths causally related to treatment/all (Age 2 Months to <2 Years) | Serious AE Atelectasis: Deaths causally related to treatment/all (Age 2 Months to <2 Years) | Serious AE Atelectasis: Occurrences causally related to treatment/all (Age 2 Months to <2 Years) | Serious AE Bacteraemia: Deaths causally related to treatment/all (Age 2 Months to <2 Years) | Serious AE Bacteraemia: Occurrences causally related to treatment/all (Age 2 Months to <2 Years) | Serious AE Cellulitis: Deaths causally related to treatment/all (Age 2 Months to <2 Years) | Serious AE Cellulitis: Occurrences causally related to treatment/all (Age 2 Months to <2 Years) | Serious AE Croup infectious: Deaths causally related to treatment/all (Age 2 Months to <2 Years) | Serious AE Cyanosis: Deaths causally related to treatment/all (Age 2 Months to <2 Years) | Serious AE Dehydration: Deaths causally related to treatment/all (Age 2 Months to <2 Years) | Serious AE Dehydration: Occurrences causally related to treatment/all (Age 2 Months to <2 Years) | Serious AE Device related infection: Deaths causally related to treatment/all (Age 2 Months to <2 Years) | Serious AE Device related infection: Occurrences causally related to treatment/all (Age 2 Months to <2 Years) | Serious AE Feeding Disorder: Deaths causally related to treatment/all (Age 2 Months to <2 Years) | Serious AE Feeding Disorder: Occurrences causally related to treatment/all (Age 2 Months to <2 Years) | Serious AE Gastroenteritis: Deaths causally related to treatment/all (Age 2 Months to <2 Years) | Serious AE Hyperammonaemia: Deaths causally related to treatment/all (Age 2 Months to <2 Years) | Serious AE Influenza: Deaths causally related to treatment/all (Age 2 Months to <2 Years) | Serious AE Lethargy: Deaths causally related to treatment/all (Age 2 Months to <2 Years) | Serious AE Lethargy: Occurrences causally related to treatment/all (Age 2 Months to <2 Years) | Serious AE Medical device site infection: Deaths causally related to treatment/all (Age 2 Months to <2 Years) | Serious AE Medical device site infection: Occurrences causally related to treatment/all (Age 2 Months to <2 Years) | Serious AE Meningitis bacterial: Deaths causally related to treatment/all (Age 2 Months to <2 Years) | Serious AE Meningitis bacterial: Occurrences causally related to treatment/all (Age 2 Months to <2 Years) | Serious AE Neutropenia: Deaths causally related to treatment/all (Age 2 Months to <2 Years) | Serious AE Neutropenia: Occurrences causally related to treatment/all (Age 2 Months to <2 Years) | Serious AE Pyrexia: Deaths causally related to treatment/all (Age 2 Months to <2 Years) | Serious AE Respiratory syncytial virus infection: Deaths causally related to treatment/all (Age 2 Months to <2 Years) | Serious AE Rhinovirus infection: Deaths causally related to treatment/all (Age 2 Months to <2 Years) | Serious AE Status asthmaticus: Deaths causally related to treatment/all (Age 2 Months to <2 Years) | Serious AE Tracheitis: Deaths causally related to treatment/all (Age 2 Months to <2 Years) | Serious AE Tracheitis: Occurrences causally related to treatment/all (Age 2 Months to <2 Years) | Serious AE Upper respiratory tract infection: Deaths causally related to treatment/all (Age 2 Months to <2 Years) | Serious AE Upper respiratory tract infection: Occurrences causally related to treatment/all (Age 2 Months to <2 Years) | Serious AE Urinary tract infection: Deaths causally related to treatment/all (Age 2 Months to <2 Years) | Serious AE Viral infection: Deaths causally related to treatment/all (Age 2 Months to <2 Years) | Serious AE Viral upper respiratory tract infection: Deaths causally related to treatment/all (Age 2 Months to <2 Years) | Serious AE Vomiting: Deaths causally related to treatment/all (Age 2 Months to <2 Years) | Serious AE Vomiting: Occurrences causally related to treatment/all (Age 2 Months to <2 Years)
2: Amino acid level increased, Occurrences (all) [1] | Angular cheilitis, Occurrences (all) [1] | Candida infection, Occurrences (all) [1] | Carbon dioxide decreased, Occurrences (all) [1] | Constipation, Occurrences (all) [1] | Croup infectious, Occurrences (all) [1] | Decreased appetite, Occurrences (all) [1] | Eczema, Occurrences (all) [1] | Hepatic enzyme increased, Occurrences (all) [1]
3: Anaemia, Occurrences (all) [1] | Ear infection, Occurrences (all) [1] | Flatulence, Occurrences (all) [1] | Hyperammonaemia, Occurrences (all) [1]
5: Cough, Occurrences (all) [1]

Reference: US10668040B2, “Treatment of urea cycle disorders in neonates and infants” (Horizon Therapeutics, LLC, priority 2017, dated 2020)
